Results published in US20260125382A1, “COMPOUNDS FOR INHIBITING OR DEGRADING CDK2 AND/OR CDK9 AND MEDICINAL USE THEREOF” (KOREA RESEARCH INSTITUTE OF CHEMICAL TECHNOLOGY, priority 2022, published 2026).

Experiments:
CDK2 = biological target: T1, CDK2 (Homo sapiens, UniProt P24941); assay: CDK protein degradation activity (Western blotting), CDK2; type: cell-based; conditions: MDA-MB-231 cells, 16 hours, Western blot
T1 construct: endogenous in cells; host or cells: MDA-MB-231
How it was run: (§1)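 MDA-MB-231; cmpd 100 nM / 1 μM / 10 μM final vs DMSO, 16 h. Triton X-100 lysates (pH 7.5, phosphatase/protease inhibitors) → SDS-PAGE → Western blot, anti-CDK2, anti-CDK9, tubulin loading control; densitometry.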

CDK9 = biological target: T2, CDK9 (Homo sapiens, UniProt P50750); assay: CDK protein degradation activity (Western blotting), CDK9; type: cell-based; conditions: MDA-MB-231 cells, 16 hours, Western blot
T2 construct: endogenous in cells; host or cells: MDA-MB-231
T2 sequence (P50750 whole entry): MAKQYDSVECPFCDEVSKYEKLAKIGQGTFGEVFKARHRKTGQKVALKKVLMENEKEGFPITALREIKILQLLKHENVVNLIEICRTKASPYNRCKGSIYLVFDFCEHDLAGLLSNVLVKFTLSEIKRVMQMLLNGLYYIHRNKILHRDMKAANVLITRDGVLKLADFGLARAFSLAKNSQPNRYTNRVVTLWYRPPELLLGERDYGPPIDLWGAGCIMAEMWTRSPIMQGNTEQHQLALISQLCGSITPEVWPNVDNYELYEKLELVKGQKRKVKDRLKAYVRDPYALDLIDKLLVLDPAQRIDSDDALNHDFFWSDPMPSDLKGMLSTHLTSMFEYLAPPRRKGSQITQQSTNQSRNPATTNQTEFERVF
How it was run: as §1

SMILES | Enzyme degradation CDK2 (% remaining) @ 0.1 μM (CDK2) | Enzyme degradation CDK2 (% remaining) @ 1 μM (CDK2) | Enzyme degradation CDK2 (% remaining) @ 10 μM (CDK2) | Enzyme degradation CDK9 (% remaining) @ 0.1 μM (CDK9) | Enzyme degradation CDK9 (% remaining) @ 1 μM (CDK9) | Enzyme degradation CDK9 (% remaining) @ 10 μM (CDK9)
Cc1cccc(C(=O)N[C@H]2C[C@@H](n3cnc4c(Nc5ccc(N6CCN(C7CC8(CCN(c9ccc%10nnn([C@H]%11CCC(=O)NC%11=O)c(=O)c%10c9)CC8)C7)CC6)cc5)ncnc43)C2)n1 [Compound 386, N-((1s,3s)-3-(6-((4-(4-(7-(3-(2,6-dioxopiperidin-3-yl)-4-oxo-3,4-dihydrobenzo[d][1,2,3]triazin-6-yl)-7-azaspiro[3.5]nonan-2-yl)piperazin-1-yl)phenyl)amino)-9H-purin-9-yl)cyclobutyl)-6-methylpicolinamide] | 20% | 10% | 10% | 0/0/0% | 0/0/0% | 0/0/0%
O=C1CC[C@H](N2C(=O)c3ccc(N4CCC(C(=O)N5CCN(C6CCN(c7ccc(Nc8ncnc9c8ncn9C8CC(NC(=O)Cc9ccccc9)C8)cc7)CC6)CC5)CC4)cc3C2=O)C(=O)N1 (stereo partly drawn) [Compound 365, N-((1s,3s)-3-(6-((4-(4-(4-(1-(2-(2,6-dioxopiperidin-3-yl)-1,3-dioxoisoindolin-5-yl)piperidin-4-carbonyl)piperazin-1-yl)piperidin-1-yl)phenyl)amino)-9H-purin-9-yl)cyclobutyl)-2-phenylacetamide] | 60/60/60% | 60/60/60% | 60/60/60% | 30% | 10% | 10%
O=C1CCC(N2C(=O)c3ccc(N4CCC(C(=O)N5CCC(CN6CCN(c7ccc(Nc8ncnc9c8ncn9[C@H]8C[C@@H](NC(=O)c9cccc(Cl)n9)C8)cc7)CC6)CC5)CC4)cc3C2=O)C(=O)N1 (stereo partly drawn) [Compound 452, 6-chloro-N-((1s,3s)-3-(6-((4-(4-((1-(1-(2-(2,6-dioxopiperidin-3-yl)-1,3-dioxoisoindolin-5-yl)piperidin-4-carbonyl)piperidin-4-yl)methyl)piperazin-1-yl)phenyl)amino)-9H-purin-9-yl)cyclobutyl)picolinamide] | 30/30/30% | 30/30/30% | 30/30/30% | 0/0/0% | 0/0/0% | 0/0/0%
O=C1CC[C@H](N2C(=O)c3ccc(NCC(=O)N4CC(N5CCC6(CC5)CC(N5CCN(c7ccc(Nc8ncnc9c8ncn9C8CC(NC(=O)Cc9ccccc9)C8)cc7)CC5)C6)C4)cc3C2=O)C(=O)N1 (stereo partly drawn) [Compound 278, N-((1s,3s)-3-(6-((4-(4-(7-(1-((2-(2,6-dioxopiperidin-3-yl)-1,3-dioxoisoindolin-5-yl)glycyl)azetidin-3-yl)-7-azaspiro[3.5]nonan-2-yl)piperazin-1-yl)phenyl)amino)-9H-purin-9-yl)cyclobutyl)-2-phenylacetamide] | 50/50/50% | 50/50/50% | 50/50/50% | 10% | 0% | 0%
O=C1CC[C@@H](c2ccc(OCC(=O)N3CCC4(CC(N5CCN(c6ccc(Nc7ncnc8c7ncn8C7CC(NC(=O)Cc8ccccc8)C7)cc6)CC5)C4)C3)cc2)C(=O)N1 (stereo partly drawn) [Compound 268, N-((1s,3s)-3-(6-((4-(4-(6-(2-(4-(2,6-dioxopiperidin-3-yl)phenoxy)acetyl)-6-azaspiro[3.4]octan-2-yl)piperazin-1-yl)phenyl)amino)-9H-purin-9-yl)cyclobutyl)-2-phenylacetamide] | 70% | 50% | 20% | 70% | 0% | 0%
O=C1CC[C@H](N2C(=O)c3cc(F)c(N4CCC(CN5CCN(c6ccc(Nc7ncnc8c7ncn8[C@H]7C[C@@H](NC(=O)c8cccc(Cl)n8)C7)cc6)CC5)CC4)cc3C2=O)C(=O)N1 [Compound 416, 6-chloro-N-((1s,3s)-3-(6-((4-(4-((1-(2-(2,6-dioxopiperidin-3-yl)-6-fluoro-1,3-dioxoisoindolin-5-yl)piperidin-4-yl)methyl)piperazin-1-yl)phenyl)amino)-9H-purin-9-yl)cyclobutyl)picolinamide] | 20% | 10% | 10% | 10/10/10% | 10/10/10% | 10/10/10%
Cc1cccc(C(=O)N[C@H]2C[C@@H](n3cnc4c(NCc5ccc(N6CCN(CC7CCN(c8ccc9c(c8)C(=O)N([C@H]8CCC(=O)NC8=O)C9=O)CC7)CC6)cc5)ncnc43)C2)n1 [Compound 151, N-((1s,3s)-3-(6-((4-(4-((1-(2-(2,6-dioxopiperidin-3-yl)-1,3-dioxoisoindolin-5-yl)piperidin-4-yl)methyl)piperazin-1-yl)benzyl)amino)-9H-purin-9-yl)cyclobutyl)-6-methylpicolinamide] | 30% | 10% | 10% | 0/0/0% | 0/0/0% | 0/0/0%
Cc1cccc(C(=O)N[C@H]2C[C@@H](n3cnc4c(Nc5ccc(N6CCN(CC7CCN(C(=O)C8CN(c9ccc%10c(c9)C(=O)N([C@H]9CCC(=O)NC9=O)C%10=O)C8)CC7)CC6)cc5)ncnc43)C2)n1 [Compound 401, N-((1s,3s)-3-(6-((4-(4-((1-(1-(2-(2,6-dioxopiperidin-3-yl)-1,3-dioxoisoindolin-5-yl)azetidin-3-carbonyl)piperidin-4-yl)methyl)piperazin-1-yl)phenyl)amino)-9H-purin-9-yl)cyclobutyl)-6-methylpicolinamide] | 30% | 20% | 20% | 0/0/0% | 0/0/0% | 0/0/0%
COc1ccc(C(=O)N2CCC(CCCN3CCN(c4ccc(Nc5ncnc6c5ncn6[C@H]5C[C@@H](NC(=O)Cc6ccccc6)C5)cc4)CC3)CC2)cc1N1CCC(=O)NC1=O [Compound 257, N-((1s,3s)-3-(6-((4-(4-(3-(1-(3-(2,4-dioxotetrahydropyrimidin-1(2H)-yl)-4-methoxybenzoyl)piperidin-4-yl)propyl)piperazin-1-yl)phenyl)amino)-9H-purin-9-yl)cyclobutyl)-2-phenylacetamide] | 0% | 20% | 20% | 80% | 50% | 50%
O=C1CCC(N2C(=O)c3cc(F)c(N4CCC5(CC4)CC(N4CCN(c6ccc(Nc7ncnc8c7ncn8[C@H]7C[C@@H](NC(=O)c8c(Cl)cccc8Cl)C7)cc6)CC4)C5)cc3C2=O)C(=O)N1 (stereo partly drawn) [Compound 316, 2,6-dichloro-N-((1s,3s)-3-(6-((4-(4-(7-(2-(2,6-dioxopiperidin-3-yl)-6-fluoro-1,3-dioxoisoindolin-5-yl)-7-azaspiro[3.5]nonan-2-yl)piperazin-1-yl)phenyl)amino)-9H-purin-9-yl)cyclobutyl)benzamide] | 30% | 30% | 50% | 0/0/0% | 0/0/0% | 0/0/0%
O=C1CC[C@H](N2C(=O)c3ccc(N4CC(C(=O)N5CCC(CCN6CCN(c7ccc(Nc8ncnc9c8ncn9C8CC(NC(=O)c9c(Cl)cccc9Cl)C8)cc7)CC6)CC5)C4)cc3C2=O)C(=O)N1 (stereo partly drawn) [Compound 412, 2,6-dichloro-N-((1s,3s)-3-(6-((4-(4-(2-(1-(1-(2-(2,6-dioxopiperidin-3-yl)-1,3-dioxoisoindolin-5-yl)azetidin-3-carbonyl)piperidin-4-yl)ethyl)piperazin-1-yl)phenyl)amino)-9H-purin-9-yl)cyclobutyl)benzamide] | 30/30/30% | 30/30/30% | 30/30/30% | 10/10/10% | 10/10/10% | 10/10/10%
